According to ChEMBL document CHEMBL3632490, “Cytotoxic Barrigenol-like Triterpenoids from an Extract of Cyrilla racemiflora Housed in a Repository” (J Nat Prod, 2015):

System: HT-29
Assay: Cytotoxicity against human HT-29 cells assessed as inhibition of cell viability after 3 days by sulforhodamine B assay
Assay type: functional, cell-based
Conditions: HT-29, 72 h

Row | Structure (SMILES) | IC50 [µM]
1 | C/C=C(/C)C(=O)O[C@H]1[C@H](O)[C@]2(CO)[C@H](O)C[C@]3(C)C(=CC[C@@H]4[C@@]5(C)CC[C@H](O)C(C)(C)[C@@H]5CC[C@]43C)[C@@H]2CC1(C)C | 1.7
2 | C/C=C(/C)C(=O)O[C@H]1[C@H](OC(C)=O)[C@]2(CO)[C@H](O)C[C@]3(C)C(=CC[C@@H]4[C@@]5(C)CC[C@H](O)C(C)(C)[C@@H]5CC[C@]43C)[C@@H]2CC1(C)C | 7.8
3 | CC1(C)C[C@H]2C3=CC[C@@H]4[C@@]5(C)C=CC(=O)C(C)(C)[C@@H]5CC[C@@]4(C)[C@]3(C)C[C@@H](O)[C@@]2(CO)[C@@H](O)[C@@H]1O | > 10
4 | C/C=C(/C)C(=O)O[C@@H]1[C@@H](O)[C@H](O[C@H]2CC(C)(C)C[C@H]3C4=CC[C@@H]5[C@@]6(C)C=C[C@H](O)C(C)(C)[C@@H]6CC[C@@]5(C)[C@]4(C)C[C@@H](O)[C@@]23CO)O[C@H](CO)[C@H]1OC(=O)/C(C)=C\C | > 10
5 | C/C=C(/C)C(=O)O[C@H]1CC(C)(C)C[C@H]2C3=CC[C@@H]4[C@@]5(C)CC[C@H](O)C(C)(C)[C@@H]5CC[C@@]4(C)[C@]3(C)[C@@H](O)[C@@H](O)[C@@]12CO | 8.7
6 | C/C=C(/C)C(=O)O[C@H]1[C@H](O)C(C)(C)C[C@H]2C3=CC[C@@H]4[C@@]5(C)CC[C@H](O)C(C)(C)[C@@H]5CC[C@@]4(C)[C@]3(C)[C@@H](O)[C@@H](O)[C@]21CO | > 10

System: not listed separately
Assay: Cytotoxicity against human CCD-112CoN cells assessed as inhibition of cell viability after 3 days by sulforhodamine B assay
Assay type: cell-based
Conditions: 72 h

Row | Structure (SMILES) | IC50 [µM]
7 | C/C=C(/C)C(=O)O[C@H]1[C@H](O)[C@]2(CO)[C@H](O)C[C@]3(C)C(=CC[C@@H]4[C@@]5(C)CC[C@H](O)C(C)(C)[C@@H]5CC[C@]43C)[C@@H]2CC1(C)C | 5.9
8 | CC(=O)O[C@H]1C(=O)[C@@]2(C)[C@H]([C@H](OC(=O)c3ccccc3)[C@]3(O)C[C@H](OC(=O)[C@H](O)[C@@H](NC(=O)c4ccccc4)c4ccccc4)C(C)=C1C3(C)C)[C@]1(OC(C)=O)CO[C@@H]1C[C@@H]2O [PACLITAXEL] | 19.3
